According to ChEMBL document CHEMBL4480433, “Investigation of B,C-ring truncated deguelin derivatives as heat shock protein 90 (HSP90) inhibitors for use as anti-breast cancer agents” (Bioorg Med Chem, 2019):
The source made the active and inactive calls. The calls are words filed in the database; no cut-off is given here.

What was measured:
[1] = biological target: T1, Heat shock protein HSP90 (Homo sapiens) (UniProt P07900+P08238); test: Inhibition of HSP90 in human H1299 cells assessed as reduction in HIF-1alpha at 100 nM incubated for 72 hrs and subsequently incubated under hypoxic conditions for 12 hrs by Western blot analysis relative to control; type: cell-based; conditions: values are per cent of control
[2] = biological target: T1, Heat shock protein HSP90 (Homo sapiens); test: Inhibition of HSP90 in human H1299 cells assessed as reduction in HIF-1alpha at 10 nM incubated for 72 hrs and subsequently incubated under hypoxic conditions for 12 hrs by Western blot analysis relative to control; type: cell-based; conditions: values are per cent of control
[3] = biological target: T1, Heat shock protein HSP90 (Homo sapiens); test: Inhibition of HSP90 in human H1299 cells assessed as reduction in HIF-1alpha incubated for 72 hrs and subsequently incubated under hypoxic conditions for 12 hrs by Western blot analysis relative to control; type: cell-based
4T1 = test: Cytotoxicity against mouse 4T1 cells at 10 uM after 72 hrs by MTS assay; type: functional, cell-based
MDA-MB-231 [4] = test: Cytotoxicity against human MDA-MB-231 cells at 10 uM after 72 hrs by MTS assay; type: functional, cell-based
MDA-MB-231 [5] = test: Inhibition of ERK phosphorylation in human MDA-MB-231 cells at 5 to 10 uM after 72 hrs by immunoblot analysis; type: cell-based
MDA-MB-231 [6] = test: Induction of morphological changes in human MDA-MB-231 cells assessed as cytoplasmic shrinkage at 2 to 10 uM after 72 hrs by phase contrast microscopic analysis; type: functional, cell-based
MDA-MB-231 [7] = test: Inhibition of HSP90 in human MDA-MB-231 cells assessed as reduction in phosphorylated-MEK/total-MEK ratio at 5 to 10 uM after 72 hrs by immunoblot analysis; type: cell-based; conditions: Hofmanni bacterium
MDA-MB-231 [8] = test: Inhibition of HSP90 in human MDA-MB-231 cells assessed as reduction in phosphorylated-AKT/total-AKT ratio at 5 to 10 uM after 72 hrs by immunoblot analysis; type: cell-based
MDA-MB-231 [9] = test: Effect on ERK protein level in human MDA-MB-231 cells at 2 to 10 uM after 72 hrs by immunoblot analysis; type: functional, cell-based
MDA-MB-231 [10] = test: Inhibition of HSP90 in human MDA-MB-231 cells assessed as reduction in phosphorylated-STAT3/total-STAT3 ratio at 5 to 10 uM after 72 hrs by immunoblot analysis; type: cell-based

COc1ccc(N(CCN2CCCCC2)C(=O)c2ccc3c(c2OC)C=CC(C)(C)O3)nc1OC
response, % of control [1]: 79.7%

COc1ccc(N(Cc2ccc(F)cc2)C(=O)c2ccc3c(c2OC)C=CC(C)(C)O3)nc1OC
response, % of control [1]: 63.1% | response, % of control [2]: 104%

COc1ccc(N(Cc2cccc(F)c2)C(=O)c2ccc3c(c2OC)C=CC(C)(C)O3)nc1OC
response, % of control [1]: 85.7%

COc1ccc(N(Cc2cccc(Cl)c2)C(=O)c2ccc3c(c2OC)C=CC(C)(C)O3)nc1OC
response, % of control [1]: 80.2%

COc1ccc(N(CCCN(C)C)C(=O)c2ccc3c(c2OC)C=CC(C)(C)O3)nc1OC
response, % of control [1]: 44% | inhibition [3]: Dose-dependent effect | response, % of control [2]: 65.6%

COc1ccc(NC(=O)c2ccc3c(c2OC)C=CC(C)(C)O3)nc1OC
response, % of control [1]: 88.4%

COc1ccc(N(CCN2CCCC2)C(=O)c2ccc3c(c2OC)C=CC(C)(C)O3)nc1OC
response, % of control [1]: 66%

COc1ccc(N(CCN2CCCCC2)C(=O)c2ccc3c(c2OC)C=CC(C)(C)O3)cc1OC
response, % of control [1]: 83.7%

COc1ccc(N(CCO)C(=O)c2ccc3c(c2OC)C=CC(C)(C)O3)c(F)c1OC
response, % of control [1]: 124%

COc1ccc(NC(=O)c2ccc3c(c2OC)C=CC(C)(C)O3)c(F)c1OC
response, % of control [1]: 101%

COc1ccc(N(CCN2CCOCC2)C(=O)c2ccc3c(c2OC)C=CC(C)(C)O3)cc1OC
response, % of control [1]: 117%

COc1ccc(N(CCNC(=O)OC(C)(C)C)C(=O)c2ccc3c(c2OC)C=CC(C)(C)O3)cc1OC
response, % of control [1]: 70.3%

COc1ccc(N(CCCN)C(=O)c2ccc3c(c2OC)C=CC(C)(C)O3)nc1OC
response, % of control [1]: 45.3% | response, % of control [2]: 111%

COc1ccc(N(CCN)C(=O)c2ccc3c(c2OC)C=CC(C)(C)O3)cc1OC
response, % of control [1]: 39.4% | inhibition [3]: Dose-dependent effect | response, % of control [2]: 62.1%

COc1ccc(N(CCNC(=O)OC(C)(C)C)C(=O)c2ccc3c(c2OC)C=CC(C)(C)O3)nc1OC
response, % of control [1]: 57.4%

COc1ccc(N(Cc2ccc(C)cc2)C(=O)c2ccc3c(c2OC)C=CC(C)(C)O3)nc1OC
response, % of control [1]: 71.1%

COc1ccc(CN(C(=O)c2ccc3c(c2OC)C=CC(C)(C)O3)c2ccc(OC)c(OC)n2)cc1
response, % of control [1]: 77%

COc1ccc(N(CCN(C)C)C(=O)c2ccc3c(c2OC)C=CC(C)(C)O3)c(F)c1OC
response, % of control [1]: 53.3% | response, % of control [2]: 97.9%

COCCN(C(=O)c1ccc2c(c1OC)C=CC(C)(C)O2)c1ccc(OC)c(OC)c1
response, % of control [1]: 65.5%

CCN(CC)CCN(C(=O)c1ccc2c(c1OC)C=CC(C)(C)O2)c1ccc(OC)c(OC)n1
response, % of control [1]: 64.4%

COc1ccc(N(CCN(C)C)C(=O)c2ccc3c(c2OC)C=CC(C)(C)O3)cc1OC
response, % of control [1]: 71%

COc1ccc(N(Cc2ccccc2)C(=O)c2ccc3c(c2OC)C=CC(C)(C)O3)nc1OC
response, % of control [1]: 38.6% | response, % of control [2]: 83.4%

COc1ccc(N(CCOCc2ccccc2)C(=O)c2ccc3c(c2OC)C=CC(C)(C)O3)nc1OC
response, % of control [1]: 57.2% | inhibition [3]: Dose-dependent effect | response, % of control [2]: 69.3%

COc1ccc(N(Cc2ccccn2)C(=O)c2ccc3c(c2OC)C=CC(C)(C)O3)nc1OC
response, % of control [1]: 97%

COc1ccc(N(C(=O)c2ccc3c(c2OC)C=CC(C)(C)O3)c2ccc(C)cc2)cc1OC
response, % of control [1]: 58.9%

COc1ccc(N(CCN2CCNCC2)C(=O)c2ccc3c(c2OC)C=CC(C)(C)O3)c(F)c1OC
response, % of control [1]: 54.9%

COc1ccc(N(CCNC(C)=O)C(=O)c2ccc3c(c2OC)C=CC(C)(C)O3)nc1OC
response, % of control [1]: 58.1% | inhibition [3]: Dose-dependent effect | response, % of control [2]: 66%

COc1ccc(N(C(=O)c2ccc3c(c2OC)C=CC(C)(C)O3)c2ccc(OC)c(OC)c2)cc1
response, % of control [1]: 61.9%

COc1ccc(N(C)C(=O)c2ccc3c(c2OC)C=CC(C)(C)O3)cc1OC
response, % of control [1]: 126%

COCCN(C(=O)c1ccc2c(c1OC)C=CC(C)(C)O2)c1ccc(OC)c(OC)n1
response, % of control [1]: 52.5%

COc1ccc(N(CCCN)C(=O)c2ccc3c(c2OC)C=CC(C)(C)O3)cc1OC
response, % of control [1]: 100%

COc1ccc(N(Cc2cccnc2)C(=O)c2ccc3c(c2OC)C=CC(C)(C)O3)nc1OC
response, % of control [1]: 95.8%

COc1ccc(N(Cc2ccc(Cl)cc2)C(=O)c2ccc3c(c2OC)C=CC(C)(C)O3)nc1OC
response, % of control [1]: 57.6%

COc1ccc(N(Cc2ccccc2)C(=O)c2ccc3c(c2OC)C=CC(C)(C)O3)cc1OC
response, % of control [1]: 69.8%

COc1ccc(N(CCN2CCNCC2)C(=O)c2ccc3c(c2OC)C=CC(C)(C)O3)cc1OC
response, % of control [1]: 51.9% | Activity (4T1): Active | Activity (MDA-MB-231 [4]): Active | inhibition (MDA-MB-231 [5]): Active | Activity (MDA-MB-231 [6]): Active | inhibition (MDA-MB-231 [7]): Active | inhibition (MDA-MB-231 [8]): Active | inhibition [3]: Dose-dependent effect | Activity (MDA-MB-231 [9]): inactive | response, % of control [2]: 60.6% | inhibition (MDA-MB-231 [10]): Active

COc1ccc(N(CCN(C)C)C(=O)c2ccc3c(c2OC)C=CC(C)(C)O3)nc1OC
response, % of control [1]: 37.9% | inhibition [3]: Dose-dependent effect | response, % of control [2]: 75.5%

COCCN(C(=O)c1ccc2c(c1OC)C=CC(C)(C)O2)c1ccc(OC)c(OC)c1F
response, % of control [1]: 59.3%

COc1ccc(N(Cc2ccccc2)C(=O)c2ccc3c(c2OC)C=CC(C)(C)O3)c(F)c1OC
response, % of control [1]: 60.8%

COc1ccc(N(C)C(=O)c2ccc3c(c2OC)C=CC(C)(C)O3)nc1OC
response, % of control [1]: 62.3% | response, % of control [2]: 90.4%

COc1ccc(N(C(=O)c2ccc3c(c2OC)C=CC(C)(C)O3)c2ccc(F)cc2)cc1OC
response, % of control [1]: 70.2%

COc1ccc(N(CCN2CCOCC2)C(=O)c2ccc3c(c2OC)C=CC(C)(C)O3)c(F)c1OC
response, % of control [1]: 48.8% | response, % of control [2]: 111%

COc1ccc(N(CCO)C(=O)c2ccc3c(c2OC)C=CC(C)(C)O3)cc1OC
response, % of control [1]: 133%

COc1ccc(N(CCN2CCN(C)CC2)C(=O)c2ccc3c(c2OC)C=CC(C)(C)O3)c(F)c1OC
response, % of control [1]: 53.7% | response, % of control [2]: 81.2%

COc1ccc(N(CCOCc2ccccc2)C(=O)c2ccc3c(c2OC)C=CC(C)(C)O3)cc1OC
response, % of control [1]: 74.4%

COc1ccc(N(C)C(=O)c2ccc3c(c2OC)C=CC(C)(C)O3)c(F)c1OC
response, % of control [1]: 93.1%

COc1ccc(N(Cc2ccncc2)C(=O)c2ccc3c(c2OC)C=CC(C)(C)O3)nc1OC
response, % of control [1]: 55.2% | response, % of control [2]: 108%

COc1ccc(N(CCN2CCOCC2)C(=O)c2ccc3c(c2OC)C=CC(C)(C)O3)nc1OC
response, % of control [1]: 60.3% | inhibition [3]: Dose-dependent effect | response, % of control [2]: 72.9%

COc1ccc(N(C(=O)c2ccc3c(c2OC)C=CC(C)(C)O3)c2ccc(Cl)cc2)cc1OC
response, % of control [1]: 81.2%

COc1ccc(N(CCNC(C)=O)C(=O)c2ccc3c(c2OC)C=CC(C)(C)O3)cc1OC
response, % of control [1]: 127%

CNCCN(C(=O)c1ccc2c(c1OC)C=CC(C)(C)O2)c1ccc(OC)c(OC)c1
response, % of control [1]: 75.9%

COc1ccc(N(CCOCc2ccccc2)C(=O)c2ccc3c(c2OC)C=CC(C)(C)O3)c(F)c1OC
response, % of control [1]: 65.4%

CNCCN(C(=O)c1ccc2c(c1OC)C=CC(C)(C)O2)c1ccc(OC)c(OC)n1
response, % of control [1]: 41.2% | response, % of control [2]: 93%

COc1ccc(N(CCCNC(C)=O)C(=O)c2ccc3c(c2OC)C=CC(C)(C)O3)nc1OC
response, % of control [1]: 76.6%

CNCCN(C(=O)c1ccc2c(c1OC)C=CC(C)(C)O2)c1ccc(OC)c(OC)c1F
response, % of control [1]: 107%

COc1ccc(N(CCN)C(=O)c2ccc3c(c2OC)C=CC(C)(C)O3)nc1OC
response, % of control [1]: 33.3% | inhibition [3]: Dose-dependent effect | response, % of control [2]: 64%

COc1ccc(N(CCCN)C(=O)c2ccc3c(c2OC)C=CC(C)(C)O3)c(F)c1OC
response, % of control [1]: 68.5%

COc1ccc(N(CCC2CCNCC2)C(=O)c2ccc3c(c2OC)C=CC(C)(C)O3)nc1OC
response, % of control [1]: 55.2% | response, % of control [2]: 97.2%

COc1ccc(N(C(=O)c2ccc3c(c2OC)C=CC(C)(C)O3)c2ccccc2)cc1OC
response, % of control [1]: 52.8% | response, % of control [2]: 83.7%

COc1ccc(N(CCN)C(=O)c2ccc3c(c2OC)C=CC(C)(C)O3)c(F)c1OC
response, % of control [1]: 147%

COc1ccc(N(CCO)C(=O)c2ccc3c(c2OC)C=CC(C)(C)O3)nc1OC
response, % of control [1]: 87.9%

COc1ccc(NC(=O)c2ccc3c(c2OC)C=CC(C)(C)O3)cc1OC
response, % of control [1]: 147%

COc1ccc(N(CCN2CCNCC2)C(=O)c2ccc3c(c2OC)C=CC(C)(C)O3)nc1OC
response, % of control [1]: 59.4%

COc1ccc(N(CCN2CCN(C)CC2)C(=O)c2ccc3c(c2OC)C=CC(C)(C)O3)cc1OC
response, % of control [1]: 61.9%

COc1ccc(N(CCN2CCCCC2)C(=O)c2ccc3c(c2OC)C=CC(C)(C)O3)c(F)c1OC
response, % of control [1]: 54.3%

COc1ccc(N(CCN2CCN(C)CC2)C(=O)c2ccc3c(c2OC)C=CC(C)(C)O3)nc1OC
response, % of control [1]: 42.2% | response, % of control [2]: 97.2%
